The values that follow are results of earlier work, collected in patent US11931686B1, “Carbon capture process utilizing inert gas medium to assist thermal desorption” (CARBON CAPTURE INC., priority 2022, dated 2024).

The first series has as its system Rat. The note with it: Rat; Table 1, inert chemical fluids.
Turning to `Cc1ccccc1C` [o-Xylene, o-xylene], the “LD50 (Rat)” value was 3,600 mg/kg.

The series is the same for the next values; noted with them: Rat; Table 3, alcohols.
Regarding `CC(C)CCO` [i-Amyl Alcohol], the “LD50 (Rat)” value is recorded as 1,300 mg/kg.

The same series, now with this note: Rat; Table 4, hydrocarbons.
Turning to `c1ccc2c(c1)CCCC2` [Tetralin], the “LD50 (Rat)” value is on record as 2,860 mg/kg.

On to `CCCCCCCC` [Octane], for which the “LD50 (Rat)” value is reported as >5,000 mg/kg.

The same series, now with this note: rat, in vivo.
`CCO` [Ethanol]: the “LD50 (Rat)” value was 7,340 mg/kg.

As to `C[Si](C)(C)O[Si](C)(C)O[Si](C)(C)O[Si](C)(C)C` [MD2M, decamethyltetrasiloxane], the “LD50 (Rat)” value is reported as >2,000 mg/kg.

On to `CC(C)CO` [i-Butanol], for which the “LD50 (Rat)” value was 2,460 mg/kg.

For the compound `CCCCCCC` [Heptane], the “LD50 (Rat)” value is listed as >5,000 mg/kg.

On to `CCCO` [1-Propanol], for which the “LD50 (Rat)” value is 1,870 mg/kg.

With `Cc1cccc(C)c1` [m-Xylene, m-xylene], the “LD50 (Rat)” value was 5,000 mg/kg.

Take `CCC(CC)CO` [2-Ethylbutanol]: the “LD50 (Rat)” value is 1,850 mg/kg.

For `CCOC(=O)c1ccccc1` [Ethyl Benzoate, ethyl benzoate], the “LD50 (Rat)” value is reported as 2,100 mg/kg.

For `CCCCCCCCCCC` [Undecane, undecane], the “LD50 (Rat)” value is reported as 2,000 mg/kg.

In the case of `Cc1ccc(C(C)C)cc1` [p-Cymene], the “LD50 (Rat)” value was 4,750 mg/kg.

As for `CO` [Methanol], the “LD50 (Rat)” value is recorded as 5,628 mg/kg.

`CCC(C)O` (centres unmarked) [2-Butanol]: the “LD50 (Rat)” value was 2,193 mg/kg.

In the case of `CC(C)O` [2-Propanol], the “LD50 (Rat)” value is given as 3,600 mg/kg.

Consider `Clc1ccccc1` [Chlorobenzene], for which the “LD50 (Rat)” value is >2,000 mg/kg.

Regarding `CCCCC(CC)CO` (centres unmarked) [2-Ethylhexanol], the “LD50 (Rat)” value is listed as 3,730 mg/kg.

On to `CCCCO` [1-Butanol], for which the “LD50 (Rat)” value is 790 mg/kg.

System in the next series: not given
Conditions: Table 1.
Turning to `C[Si](C)(C)O[Si](C)(C)O[Si](C)(C)O[Si](C)(C)C` [MD2M, decamethyltetrasiloxane], the “Solubility in Water” value was “insoluble”.

With `CCOC(=O)c1ccccc1` [Ethyl Benzoate, ethyl benzoate], the “Solubility in Water” value was 0.07 g/100 g.

Turning to `Cc1ccccc1C` [o-Xylene, o-xylene], the “Solubility in Water” value is on record as 0.02 g/100 g.
